Assay results from ChEMBL document CHEMBL2046386, “Potent and selective aminopyrimidine-based B-Raf inhibitors with favorable physicochemical and pharmacokinetic properties” (J Med Chem, 2012).
≈ marks a conversion by molar mass, not a printed value.

Tests used:
[1] = molecular target: T1, Serine/threonine-protein kinase B-raf (Homo sapiens, UniProt P15056, V600E); test: Inhibition of His6X-tagged human B-raf V600E mutant expressed in baculovirus infected insect cells coexpressing […] using [gamma33P]ATP after 60 mins by scintillation counting
[2] = molecular target: T1, Serine/threonine-protein kinase B-raf; test: Inhibition of B-raf V600E mutant-mediated Erk phosphorylation in human MALM-3M cells by fluorometric analysis; type: cell-based
[3] = Thermodynamic solubility of the compound at 0.5 mg/ml after 24 hrs by shake flask method at pH 1.2; type: physicochemical; settings: buffer, read-out: Therm_solubility
[4] = AUC in mouse at 30 mg/kg, po dosed as crystalline suspension in 20%HPBCD vehicle (20% hydroxypropyl-beta-cyclodextrin/80% water); type: ADME, organism-based; set-up: dose 30 mg/kg, route oral; settings: plasma
[5] = Oral bioavailability in rat at 25 mg/kg dosed as crystalline suspension in 20%HPBCD vehicle (20% hydroxypropyl-beta-cyclodextrin/80% water); type: ADME, organism-based; settings: in vivo
[6] = AUC in rat at 25 mg/kg, po dosed as crystalline suspension in 20%HPBCD vehicle (20% hydroxypropyl-beta-cyclodextrin/80% water); type: ADME, organism-based; set-up: dose 25 mg/kg, route oral; settings: plasma
[7] = Volume of distribution at steady state in rat at 1 mg/kg, iv dosed as crystalline suspension in 20%HPBCD vehicle (20% hydroxypropyl-beta-cyclodextrin/80% water); type: ADME, organism-based; set-up: dose 1 mg/kg, route intravenous; settings: in vivo, read-out: Vdss
[8] = molecular target: Cytochrome P450 2C9 (Homo sapiens, UniProt P11712); test: Inhibition of CYP2C9; type: ADME
[9] = Lipophilicity, log P of the compound; type: physicochemical; settings: octanol/water
[10] = AUC in mouse at 1 mg/kg, po dosed as crystalline suspension in 20%HPBCD vehicle (20% hydroxypropyl-beta-cyclodextrin/80% water); type: ADME, organism-based; set-up: dose 1 mg/kg, route oral; settings: plasma
[11] = Cmax in mouse at 30 mg/kg, po dosed as crystalline suspension in 20%HPBCD vehicle (20% hydroxypropyl-beta-cyclodextrin/80% water); type: ADME, organism-based; set-up: dose 30 mg/kg, route oral; settings: in vivo
[12] = Thermodynamic solubility of the compound at 0.5 mg/ml after 24 hrs by shake flask method at pH 6.5; type: physicochemical; settings: buffer, read-out: Therm_solubility
[13] = Clearance in rat at 1 mg/kg, iv dosed as crystalline suspension in 20%HPBCD vehicle (20% hydroxypropyl-beta-cyclodextrin/80% water); type: ADME, organism-based; set-up: dose 1 mg/kg, route intravenous; settings: in vivo
[14] = species on record: Homo sapiens; test: Selectivity index, ratio of IC50 for wild-type B-raf to IC50 for human Braf V600E mutant
[15] = Inhibition of cytochrome P450; type: ADME
[16] = test system: NCI-H226; test: Antiproliferative activity against human NCI-H226 cells expressing wild-type B-raf; type: functional, cell-based
[17] = Antiproliferative activity against human A375.X1 cells expressing B-raf V600E mutant; type: functional, cell-based
[18] = test system: RKO; test: Antiproliferative activity against PTEN-deficient human RKO cells expressing B-raf V600E mutant and high level of EGFR; type: functional, cell-based
[19] = species on record: Homo sapiens; test: Selectivity index, ratio of IC50 for wild-type C-raf to IC50 for human Braf V600E mutant
[20] = test system: COLO 205; test: Antiproliferative activity against human COLO205 cells expressing B-raf V600E mutant; type: functional, cell-based
[21] = Oral bioavailability in mouse at 10 mg/kg dosed as crystalline suspension in 20%HPBCD vehicle (20% hydroxypropyl-beta-cyclodextrin/80% water); type: ADME, organism-based; settings: in vivo
[22] = Dissociation constant, pKa of the compound at basic pH; type: physicochemical
[23] = Time-dependent inhibition of cytochrome P450; type: ADME
[24] = test system: Mus musculus; test: Toxicity in NCr nude mouse xenografted with human COLO205 cells expressing B-raf V600E mutant assessed as adverse effects; type: organism-based, COLO 205; settings: in vivo
[25] = Oral bioavailability in mouse at 1 mg/kg dosed as crystalline suspension in 20%HPBCD vehicle (20% hydroxypropyl-beta-cyclodextrin/80% water); type: ADME, organism-based; settings: in vivo
[26] = molecular target: Voltage-gated inwardly rectifying potassium channel KCNH2 (Homo sapiens, UniProt Q12809); test: Inhibition of human Erg
[27] = Cmax in rat at 5 mg/kg, po dosed as crystalline suspension in 20%HPBCD vehicle (20% hydroxypropyl-beta-cyclodextrin/80% water); type: ADME, organism-based; set-up: dose 5 mg/kg, route oral; settings: in vivo
[28] = Cmax in mouse at 50 mg/kg, po dosed as crystalline suspension in 20%HPBCD vehicle (20% hydroxypropyl-beta-cyclodextrin/80% water); type: ADME, organism-based; set-up: dose 50 mg/kg, route oral; settings: in vivo
[29] = molecular target: RAF proto-oncogene serine/threonine-protein kinase (Homo sapiens, UniProt P04049); test: Inhibition of wild type C-raf in presence of 1 mM ATP
[30] = Plasma protein binding in mouse; type: ADME, cell-free; settings: read-out: PPB (converted)
[31] = Cmax in mouse at 1 mg/kg, po dosed as crystalline suspension in 20%HPBCD vehicle (20% hydroxypropyl-beta-cyclodextrin/80% water); type: ADME, organism-based; set-up: dose 1 mg/kg, route oral; settings: in vivo
[32] = Volume of distribution at steady state in mouse at 2.5 mg/kg, iv; type: ADME, organism-based; set-up: dose 2.5 mg/kg, route intravenous; settings: in vivo, read-out: Vdss
[33] = Cmax in mouse at 10 mg/kg, po dosed as crystalline suspension in 20%HPBCD vehicle (20% hydroxypropyl-beta-cyclodextrin/80% water); type: ADME, organism-based; set-up: dose 10 mg/kg, route oral; settings: in vivo
[34] = test system: HT-29; test: Antiproliferative activity against human HT-29 cells expressing B-raf V600E mutant and high level of EGFR; type: functional, cell-based
[35] = Oral bioavailability in mouse at 30 mg/kg dosed as crystalline suspension in 20%HPBCD vehicle (20% hydroxypropyl-beta-cyclodextrin/80% water); type: ADME, organism-based; settings: in vivo
[36] = molecular target: T1, Serine/threonine-protein kinase B-raf; test: Inhibition of His6X-tagged human B-raf V600E mutant expressed in baculovirus infected insect cells coexpressing […] using [gamma33P]ATP after 60 mins by scintillation counting in presence of 1 mM ATP
[37] = Clearance in mouse at 2.5 mg/kg, iv; type: ADME, organism-based; set-up: dose 2.5 mg/kg, route intravenous; settings: in vivo
[38] = molecular target: Serine/threonine-protein kinase B-raf (Homo sapiens, UniProt P15056); test: Inhibition of wild type B-raf in presence of 1 mM ATP
[39] = Cmax in rat at 25 mg/kg, po dosed as crystalline suspension in 20%HPBCD vehicle (20% hydroxypropyl-beta-cyclodextrin/80% water); type: ADME, organism-based; set-up: dose 25 mg/kg, route oral; settings: in vivo
[40] = test system: COLO 205; test: Antitumor activity against human COLO205 cells expressing B-raf V600E mutant xenografted in po dosed NCr nude mouse assessed as decrease in tumor volume administered once daily for 21 days measured twice a week up to 21 days; type: functional; settings: for ED50 / ED90: Mus musculus, COLO 205, po, 504 h
[41] = Oral bioavailability in mouse at 30 mg/kg dosed as crystalline suspension in 20%HPBCD vehicle (20% hydroxypropyl-beta-cyclodextrin/80% water); settings: in vivo
[42] = AUC in mouse at 50 mg/kg, po dosed as crystalline suspension in 20%HPBCD vehicle (20% hydroxypropyl-beta-cyclodextrin/80% water); type: ADME, organism-based; set-up: dose 50 mg/kg, route oral; settings: plasma
[43] = test system: Salmonella typhimurium; test: Induction of mutagenesis in Salmonella typhimurium by Ames test; type: toxicity, organism-based; settings: salmonella enterica subsp. enterica serovar typhimurium
[44] = Oral bioavailability in rat at 5 mg/kg dosed as crystalline suspension in 20%HPBCD vehicle (20% hydroxypropyl-beta-cyclodextrin/80% water); type: ADME, organism-based; settings: in vivo
[45] = AUC in mouse at 10 mg/kg, po dosed as crystalline suspension in 20%HPBCD vehicle (20% hydroxypropyl-beta-cyclodextrin/80% water); type: ADME, organism-based; set-up: dose 10 mg/kg, route oral; settings: plasma
[46] = AUC in rat at 5 mg/kg, po dosed as crystalline suspension in 20%HPBCD vehicle (20% hydroxypropyl-beta-cyclodextrin/80% water); type: ADME, organism-based; set-up: dose 5 mg/kg, route oral; settings: plasma
[47] = AUC in mouse at 30 mg/kg, po dosed in 0.5% methylcellulose/0.2% Tween 80/99.3% water; type: ADME, organism-based; set-up: dose 30 mg/kg, route oral; settings: in vivo
[48] = Oral bioavailability in mouse at 30 mg/kg; type: ADME, organism-based; settings: in vivo
[49] = AUC in mouse at 30 mg/kg, po dosed as as solution; type: ADME, organism-based; set-up: dose 30 mg/kg, route oral; settings: plasma
[50] = Dissociation constant, pKa of the compound at acidic pH; type: physicochemical
[51] = Thermodynamic solubility of the compound at 0.5 mg/ml after 24 hrs by shake flask method at pH 7.4; type: physicochemical; settings: buffer, read-out: Therm_solubility

T1 sequence (P15056 2-766 V600E limits assumed): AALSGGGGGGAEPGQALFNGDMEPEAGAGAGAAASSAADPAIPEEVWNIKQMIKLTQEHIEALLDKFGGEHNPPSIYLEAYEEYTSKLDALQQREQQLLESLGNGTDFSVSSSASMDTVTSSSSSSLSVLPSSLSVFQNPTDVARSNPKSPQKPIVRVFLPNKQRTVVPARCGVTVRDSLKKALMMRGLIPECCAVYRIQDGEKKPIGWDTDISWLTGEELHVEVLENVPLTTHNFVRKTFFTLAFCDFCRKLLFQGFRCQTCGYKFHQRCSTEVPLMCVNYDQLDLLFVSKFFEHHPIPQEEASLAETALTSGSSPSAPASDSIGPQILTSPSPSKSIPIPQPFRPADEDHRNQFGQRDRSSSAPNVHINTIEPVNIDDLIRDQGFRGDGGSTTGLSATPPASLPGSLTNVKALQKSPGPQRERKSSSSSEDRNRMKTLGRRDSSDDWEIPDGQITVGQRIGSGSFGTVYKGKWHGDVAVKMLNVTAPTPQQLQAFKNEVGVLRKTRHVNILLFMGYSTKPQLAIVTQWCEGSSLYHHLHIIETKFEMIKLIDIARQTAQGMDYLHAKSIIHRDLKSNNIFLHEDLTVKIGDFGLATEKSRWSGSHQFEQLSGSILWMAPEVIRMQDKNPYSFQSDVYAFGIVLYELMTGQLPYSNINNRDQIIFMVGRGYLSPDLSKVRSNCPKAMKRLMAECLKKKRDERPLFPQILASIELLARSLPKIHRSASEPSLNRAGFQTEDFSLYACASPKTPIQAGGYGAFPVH
Chain of Voltage-gated inwardly rectifying potassium channel KCNH2 (Q12809 whole entry): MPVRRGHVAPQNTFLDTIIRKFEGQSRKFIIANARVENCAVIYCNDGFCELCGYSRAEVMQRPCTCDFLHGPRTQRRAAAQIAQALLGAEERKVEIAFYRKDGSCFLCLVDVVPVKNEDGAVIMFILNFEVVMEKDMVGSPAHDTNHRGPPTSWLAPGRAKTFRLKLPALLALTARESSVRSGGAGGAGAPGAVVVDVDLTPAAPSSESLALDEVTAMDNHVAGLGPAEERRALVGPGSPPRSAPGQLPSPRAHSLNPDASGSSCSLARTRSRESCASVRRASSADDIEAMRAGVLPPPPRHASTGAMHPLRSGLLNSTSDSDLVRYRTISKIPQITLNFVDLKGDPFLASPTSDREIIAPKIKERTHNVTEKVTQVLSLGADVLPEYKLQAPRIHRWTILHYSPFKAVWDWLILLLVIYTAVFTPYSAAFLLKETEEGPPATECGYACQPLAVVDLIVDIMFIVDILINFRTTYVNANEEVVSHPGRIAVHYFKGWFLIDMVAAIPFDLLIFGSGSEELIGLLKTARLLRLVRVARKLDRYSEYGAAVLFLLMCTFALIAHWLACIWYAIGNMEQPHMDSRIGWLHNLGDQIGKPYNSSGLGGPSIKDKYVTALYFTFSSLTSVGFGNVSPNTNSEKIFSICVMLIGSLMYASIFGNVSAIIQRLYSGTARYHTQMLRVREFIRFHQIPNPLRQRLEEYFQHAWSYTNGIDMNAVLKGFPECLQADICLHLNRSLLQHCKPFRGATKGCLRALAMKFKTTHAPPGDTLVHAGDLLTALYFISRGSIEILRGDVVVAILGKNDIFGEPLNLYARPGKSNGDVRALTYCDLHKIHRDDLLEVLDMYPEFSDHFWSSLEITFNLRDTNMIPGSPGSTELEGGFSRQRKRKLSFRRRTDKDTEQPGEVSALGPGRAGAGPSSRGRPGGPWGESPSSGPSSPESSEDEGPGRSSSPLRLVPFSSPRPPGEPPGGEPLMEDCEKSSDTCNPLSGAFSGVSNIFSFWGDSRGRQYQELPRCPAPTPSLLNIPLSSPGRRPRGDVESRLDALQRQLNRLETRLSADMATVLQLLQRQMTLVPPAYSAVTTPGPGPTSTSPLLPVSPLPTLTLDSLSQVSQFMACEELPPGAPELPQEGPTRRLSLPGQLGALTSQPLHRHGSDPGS
Chain of Cytochrome P450 2C9 (P11712 whole entry): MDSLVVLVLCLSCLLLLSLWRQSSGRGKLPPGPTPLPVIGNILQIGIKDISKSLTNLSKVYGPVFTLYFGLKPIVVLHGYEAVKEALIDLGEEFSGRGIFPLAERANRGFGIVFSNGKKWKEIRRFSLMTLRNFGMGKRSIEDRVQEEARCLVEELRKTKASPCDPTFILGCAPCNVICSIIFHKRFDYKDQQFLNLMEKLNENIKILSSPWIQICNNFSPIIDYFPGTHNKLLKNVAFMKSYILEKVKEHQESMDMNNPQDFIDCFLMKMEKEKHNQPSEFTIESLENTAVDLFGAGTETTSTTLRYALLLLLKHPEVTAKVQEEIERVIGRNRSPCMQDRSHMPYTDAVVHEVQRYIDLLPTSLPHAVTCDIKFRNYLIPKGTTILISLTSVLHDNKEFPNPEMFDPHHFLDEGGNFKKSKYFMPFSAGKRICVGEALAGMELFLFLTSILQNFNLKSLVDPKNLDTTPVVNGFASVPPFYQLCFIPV
Chain of Serine/threonine-protein kinase B-raf (Homo sapiens, UniProt P15056) (P15056 whole entry): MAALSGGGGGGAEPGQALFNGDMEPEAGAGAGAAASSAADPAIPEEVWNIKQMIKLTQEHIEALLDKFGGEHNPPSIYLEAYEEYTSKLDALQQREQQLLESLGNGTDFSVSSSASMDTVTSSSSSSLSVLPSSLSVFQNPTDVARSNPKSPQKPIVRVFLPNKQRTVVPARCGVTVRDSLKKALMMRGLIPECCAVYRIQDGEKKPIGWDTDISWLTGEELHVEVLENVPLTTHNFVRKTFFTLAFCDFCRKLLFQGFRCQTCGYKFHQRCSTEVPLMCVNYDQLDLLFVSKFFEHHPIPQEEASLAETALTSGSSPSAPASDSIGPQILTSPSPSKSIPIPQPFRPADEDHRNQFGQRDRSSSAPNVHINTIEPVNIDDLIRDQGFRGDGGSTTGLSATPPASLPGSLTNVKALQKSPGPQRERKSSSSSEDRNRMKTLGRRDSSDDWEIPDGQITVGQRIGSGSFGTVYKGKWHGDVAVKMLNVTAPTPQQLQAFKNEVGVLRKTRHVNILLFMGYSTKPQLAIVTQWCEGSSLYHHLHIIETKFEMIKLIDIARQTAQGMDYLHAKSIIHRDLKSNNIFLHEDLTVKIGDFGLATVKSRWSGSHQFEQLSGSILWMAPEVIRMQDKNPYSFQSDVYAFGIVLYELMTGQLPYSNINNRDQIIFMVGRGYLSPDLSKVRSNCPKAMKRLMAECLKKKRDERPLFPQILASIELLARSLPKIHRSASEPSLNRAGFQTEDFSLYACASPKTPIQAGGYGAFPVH
Chain of RAF proto-oncogene serine/threonine-protein kinase (P04049 whole entry): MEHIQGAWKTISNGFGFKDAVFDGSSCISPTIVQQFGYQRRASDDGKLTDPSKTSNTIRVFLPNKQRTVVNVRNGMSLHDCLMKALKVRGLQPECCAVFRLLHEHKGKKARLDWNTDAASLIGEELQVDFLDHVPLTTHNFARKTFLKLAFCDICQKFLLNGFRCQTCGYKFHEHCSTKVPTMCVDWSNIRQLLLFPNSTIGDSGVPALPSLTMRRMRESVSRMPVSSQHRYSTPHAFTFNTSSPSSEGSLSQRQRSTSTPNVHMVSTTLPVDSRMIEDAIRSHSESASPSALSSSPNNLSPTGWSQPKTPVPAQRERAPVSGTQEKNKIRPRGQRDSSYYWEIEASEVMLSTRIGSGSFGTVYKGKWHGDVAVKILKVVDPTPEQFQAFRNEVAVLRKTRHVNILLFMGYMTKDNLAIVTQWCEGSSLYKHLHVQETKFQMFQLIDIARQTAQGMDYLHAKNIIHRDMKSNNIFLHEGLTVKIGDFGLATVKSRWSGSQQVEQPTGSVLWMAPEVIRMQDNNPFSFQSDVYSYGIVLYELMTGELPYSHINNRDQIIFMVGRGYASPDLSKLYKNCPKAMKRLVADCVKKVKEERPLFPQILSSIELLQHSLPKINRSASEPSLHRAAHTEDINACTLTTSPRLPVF

Question: What does the source list for CCCS(=O)(=O)Nc1ccc(F)c(NC(=O)Nc2ncnc3[nH]ncc23)c1F?
Answer: IC50 [1]: 5.6 nM; IC50 [2]: 88 nM; solubility thermodynamic at 24 h [3]: 7 µg/mL (≈ 17 µM)

Question: Which results are given for Nc1ncnc2c(C(=O)Nc3c(Cl)ccc(NS(=O)(=O)CCCF)c3F)csc12?
Answer: AUC [4]: 1680 µM·h; bioavailability [5]: 62%; AUC [6]: 2970 µM·h; Vd [7]: 0.14 L/kg; IC50 [8]: 9000 nM; logP [9]: 3.6; AUC [10]: 84 µM·h; Cmax [11]: 162 µM; solubility thermodynamic at 24 h [12]: 10 µg/mL (≈ 21.6 µM); clearance [13]: 0.19 mL/min/kg; Ratio IC50 [14]: 11; IC50 [15]: > 25000 nM; IC50 [1]: 0.18 nM; EC50 [16]: > 10000 nM; EC50 [17]: 2 nM; EC50 [18]: 2310 nM; Ratio IC50 [19]: 152; IC50 [2]: 4.6 nM; EC50 [20]: 5 nM; bioavailability [21]: > 100%; pKa [22]: 3.6; inhibition (INH) [23]: Not Active; Activity [24]: Non-toxic; bioavailability [25]: > 100%; inhibition (INH) [26]: Not Active; Cmax [27]: 44.5 µM; Cmax [28]: 249 µM; IC50 [29]: 73 nM; fraction unbound [30]: 0.03; Cmax [31]: 7.93 µM; Vd [32]: 0.12 L/kg; Cmax [33]: 73 µM; EC50 [34]: 24 nM; bioavailability [35]: > 100%; IC50 [36]: 2 nM; clearance [37]: 0.79 mL/min/kg; IC50 [38]: 22 nM; Cmax [39]: 201 µM; solubility thermodynamic at 24 h [3]: 700 µg/mL (≈ 1520 µM); TGI [40]: 130%; ED50 [40]: 1.1 mg/kg; ED90 [40]: 6.2 mg/kg; bioavailability [41]: > 100%; AUC [42]: 3250 µM·h; Activity [43]: Non-toxic; bioavailability [44]: 68%; AUC [45]: 867 µM·h; AUC [46]: 651 µM·h

Question: What does the source list for CCCS(=O)(=O)Nc1ccc(F)c(NC(=O)c2cccc3c(N)ncnc23)c1F?
Answer: logP [9]: 2.9; solubility thermodynamic at 24 h [12]: 1 µg/mL (≈ 2.37 µM); IC50 [1]: 1.8 nM; AUC [47]: 290 µM·h; IC50 [2]: 9.5 nM; pKa [22]: 4.5; bioavailability [48]: 71%; fraction unbound [30]: 0.015; AUC [49]: 331 µM·h; Vd [32]: 0.4 L/kg; clearance [37]: 2.5 mL/min/kg; pKa [50]: 4.5; solubility thermodynamic at 24 h [3]: > 1000 µg/mL

Question: What does the source list for CCCS(=O)(=O)Nc1ccc(F)c(NC(=O)c2csc3c(N)ncnc23)c1Cl?
Answer: IC50 [1]: 1.1 nM; IC50 [2]: 15 nM

Question: With CCCS(=O)(=O)Nc1ccc(F)c(NC(=O)c2cccc3c(N)ncnc23)c1Cl as the compound, how does the IC50 [1] read?
Answer: 0.54 nM

Question: And the IC50 [2]?
Answer: 7.7 nM

Question: For CCCS(=O)(=O)Nc1ccc(F)c(C(=O)Nc2cnc3[nH]nc(OC)c3c2)c1F, which solubility thermodynamic at 24 h [12] is on record?
Answer: 4 µg/mL (≈ 9.4 µM)

Question: And the pKa [22]?
Answer: 0.7

Question: What about the solubility thermodynamic at 24 h [51] of the same compound?
Answer: 9 µg/mL (≈ 21.2 µM)

Question: What about the pKa [50] of the same compound?
Answer: 0.7

Question: What about the solubility thermodynamic at 24 h [3] of the same compound?
Answer: 3 µg/mL (≈ 7.05 µM)

Question: And the TGI [40]?
Answer: 76%

Question: And the ED50 [40]?
Answer: 25.2 mg/kg

Question: And the ED90 [40]?
Answer: 139 mg/kg

Question: Which IC50 [2] does the source give for CCCS(=O)(=O)Nc1ccc(F)c(NC(=O)Nc2cc(N)ncn2)c1F here?
Answer: 438 nM

Question: What does the source list for CCCS(=O)(=O)Nc1ccc(F)c(NC(=O)Nc2ncnc3[nH]nc(OC)c23)c1F?
Answer: IC50 [1]: 1.6 nM; EC50 [2]: 2.6 nM; pKa [50]: 1.8; solubility thermodynamic at 24 h [3]: 49 µg/mL (≈ 111 µM)
